Source: publication PMC7395068, “The evolution of strategies to minimise the risk of human drug-induced liver injury (DILI) in drug discovery and development” (Archives of Toxicology, 2020)
Read-outs that look alike come from different tables or passages of the source.

Assays:
[1] = cited from earlier work
[2] = system: HepG2 cells; conditions: cited from earlier work
[3] = system: HepG2 cells; conditions: cited from earlier work; remark: listed apart in the source
[4] = system: human hepatocytes; conditions: cited from earlier work
[5] = system: THLE or HepG2 cells, isolated mitochondria, BSEP; conditions: cited from earlier work
[6] = system: HepG2 C3A spheroid, BSEP, Glu/Gal in HepG2 cells, bioactivation; conditions: cited from earlier work
[7] = cited from earlier work; remark: listed apart in the source
[8] = system: hu-MPCC; conditions: cited from earlier work
[9] = system: RMPCC's; conditions: cited from earlier work
[10] = Plasma free fraction (fu) and unbound Cmax (Cmax,u); type: in vitro ADME, human; conditions: human
Experimental: The prediction of DILI severity was evaluated further using the 3D combined HCI assays using plasma-free fraction. The majority of fu values were obtained from literature, when unavailable in-house prediction was utilised. Unbound plasma Cmax concentrations (Cmax,u) were derived by multiplying total plasma Cmax with the corresponding free fraction (fu) for each compound.

[11] = system: hLiMTs
[12] = system: HepaRG spheroids
[13] = system: primary human hepatocytes, NIH3T3 fibroblasts, BSEP, CYP3A4; conditions: cited from earlier work
[14] = system: PHH; conditions: cited from earlier work
[15] = system: hLiMTs; conditions: cited from earlier work
[16] = human, in vivo; cited from earlier work
[17] = in vivo; cited from earlier work
[18] = system: hLiMTs; test: Combined HCI (HCS) and cellular ATP 3D assay in hLiMTs; conditions: Homo sapiens
[19] = system: HepaRG spheroids; test: Combined HCI (HCS) and cellular ATP 3D assay in HepaRG spheroids; conditions: Homo sapiens, HepaRG
[20] = system: HepG2 cells; conditions: In vitro Assay; ref Persson 2013; cited from earlier work
[21] = system: PHH spheroids; conditions: In vitro Assay; ref Vorrink 2018; cited from earlier work
[22] = system: isolated mouse liver mitochondria; conditions: In vitro Assay; ref Porceddu 2012; cited from earlier work
[23] = system: HepG2; parameters: method as in Albrecht 2019; conditions: In vitro Assay; ref Albrecht 2019; cited from earlier work
[24] = system: PHH; conditions: In vitro Assay; ref Albrecht 2019; cited from earlier work
[25] = In vitro Assay, ref O'Brien 2006
[26] = In vitro Assay, ref Proctor 2017
[27] = In vitro Assay, ref Khetani 2012

C[C@H](CS)C(=O)N1CCC[C@H]1C(=O)O [captopril]
DILI +VE (5-8), DILI -VE (-4) ([1]; in vivo): +VE
DILI severity category ([1]; in vivo): vLess-DILI-Concern
Structural based (HCI) [2]: +VE
Structural based (HCI) [3]: +VE
Structural based (HCI) [4]: -VE
Ro2 Hybrid HRM Score [5]: -VE
Bayesian Machine Learning [6]: +VE
In vivo DILI ([7]; in vivo): +VE
HMPCC's [8]: -VE
RMPCC's [9]: -VE

O=P1(N(CCCl)CCCl)NCCCO1 (stereo not shown) [cyclophosphamide, reference compound]
Human plasma Cmax,u [10]: 114.400 µM
DILI prediction hLiMTs (HCS-MEC) [11]: +VE (key: +VE: MEC < 25 × Cmax.tot cut-off)
hLiMTs <10 uM All [11]: -ve
hLiMTs <100x Avg Cmaxu ATP ([11]; human): +ve (key: +ve: <100x Avg Cmaxu)
hLiMTs <100x Avg Cmaxu All ([11]; human): +ve (key: +ve: <100x Avg Cmaxu)
hLiMTs <100x Avg Cmaxu HCS ([11]; human): +ve (key: +ve: <100x Avg Cmaxu)
hLiMTs Cmax max All ([11]; human): +ve
hLiMTs Cmax min All ([11]; human): -ve
DILI prediction HepaRG spheroids (HCS-MEC) [12]: +VE (key: +VE: MEC < 25 × Cmax.tot cut-off)
HepaRG <10 uM All [12]: -ve
HepaRG <100x Avg Cmaxu ATP ([12]; human): +ve (key: +ve: <100x Avg Cmaxu)
HepaRG <100x Avg Cmaxu All ([12]; human): +ve (key: +ve: <100x Avg Cmaxu)
HepaRG <100x Avg Cmaxu HCS ([12]; human): +ve (key: +ve: <100x Avg Cmaxu)
HepaRG Cmax max All ([12]; human): +ve
HepaRG Cmax min All ([12]; human): -ve
DILI +VE (5-8), DILI -VE (-4) ([1]; in vivo): +VE
DILI severity category (Chen et al. [2016]) ([1]; in vivo): Less
Cellular toxicity (3T3 cells) [13]: -VE
DILI in vitro assay prediction, Schadt (2015) [13]: -VE
GSH adduct HML [13]: -VE
Hepatocyte cellular toxicity [13]: -VE
MitoTox 3T3 [13]: -VE
TDI CYP3A4 [13]: -VE
hBSEP inhibition [13]: -VE
DILI in vitro assay prediction, O'Brien (2006) [2]: +VE (key: +VE: lowest HCI endpoint IC50 (or in the absence of dose–response < 100 µM) < 30 × total human plasma exposure levels (Cmax.tot))
Structural based (HCI) [2]: +VE
DILI in vitro assay prediction, Tolosa (2012) [3]: -VE
Structural based (HCI) [3]: +VE
DILI in vitro assay prediction, Xu (2008) [4]: -VE
Structural based (HCI) [4]: -VE
Partition Hybrid HRM Score [5]: -VE
Partition Hybrid HRM Score ≥4, Aleo (2019) [5]: -VE
Partition Hybrid HRM Score ≥8, Aleo (2019) [5]: -VE
Ro2 Hybrid HRM Score [5]: -VE
Rule of Two hybrid HRM Score ≥3, Aleo (2019) [5]: -VE
Rule of Two hybrid HRM Score ≥8, Aleo (2019) [5]: -VE
PHH ATP <100uM [14]: -VE
PHH/100uM, Proctor (2017) [14]: -VE
hLiMTs ATP <100uM [15]: -VE
hLiMTs/100uM, Proctor (2017) [15]: -VE
Cmax [16]: 143 µM
Assigned DILI category ([7]; in vivo): 2
HMPCC's [8]: +VE
DILI Score (FDA) (1-8) [17]: 5
RMPCC's [9]: +VE
AC50 ([18]; read-out: ATP endpoint AC50): 906 µM
minimal effective concentration ([18]; read-out: ATP endpoint MEC): 613 µM
AC50 ([18]; read-out: HCS endpoint AC50): 992 µM
minimal effective concentration ([18]; read-out: HCS endpoint MEC): 236 µM
AC50 ([19]; read-out: ATP endpoint AC50): 419 µM
minimal effective concentration ([19]; read-out: ATP endpoint MEC): 229 µM
AC50 ([19]; read-out: HCS endpoint AC50): 1860 µM
minimal effective concentration ([19]; read-out: HCS endpoint MEC): 340 µM

CN(C)CCCN1c2ccccc2CCc2ccccc21 [imipramine]
DILI +VE (5-8), DILI -VE (-4) ([1]; ref Chen 2016): +VE
DILI severity category ([1]; ref Chen 2016): vLess-DILI-Concern
Structural based (HCI) [2, 25]: +VE
Structural based (HCI) [20]: +VE
Structural based (HCI) ([3]; In vitro Assay, ref Tolosa 2012): +VE
Ro2 Hybrid HRM Score ([5]; In vitro Assay, ref Aleo 2019): +VE
PHH ATP <100uM [14, 26]: +VE (IC50 threshold of 100 µM)
hLiMTs ATP <100uM [15, 26]: +VE (IC50 threshold of 100 µM)
hLiMTs ATP <20 x Cmax [21]: +VE (IC20 < 20 × Cmax.tot cut-off)
Bayesian Machine Learning ([6]; In vitro Assay, ref Williams 2019): +VE
In vivo DILI ([7]; […]): +VE
In vivo DILI ([7]; ref Aleo 2019): +VE
In vivo DILI ([7]; ref Garside 2014): +VE
In vivo DILI ([7]; ref Khetani 2012): +VE
In vivo DILI ([7]; ref O'Brien 2006): +VE
In vivo DILI ([7]; ref Persson 2013): +VE
In vivo DILI ([7]; ref Porceddu 2012): +VE
In vivo DILI ([7]; ref Proctor 2017): +VE
In vivo DILI ([7]; ref Schadt 2015): -VE
In vivo DILI ([7]; ref Tolosa 2012): +VE
In vivo DILI ([7]; ref Vorrink 2018): +VE
In vivo DILI ([7]; ref Williams 2019): +VE
In vivo DILI ([7]; ref Xu 2008): +VE
HMPCC's [8, 27]: +VE
in vitro data EC2<=1x Cmax [22]: -VE
in vitro data EC20<=2uM [22]: +VE
RMPCC's [9, 27]: -VE

CCCCC1C(=O)N(c2ccccc2)N(c2ccccc2)C1=O [phenylbutazone]
Cytotoxicity HepG2 48 hrs [23]: +VE
Structural based (HCI) [2, 25]: +VE
In vivo DILI ([7]; in vivo): +VE
Cytotoxicity PHH 48 hrs [24]: +VE
HMPCC's [8, 27]: +VE
in vitro data EC2<=1x Cmax [22]: +VE
RMPCC's [9, 27]: +VE
